# Measurements: ChEMBL document CHEMBL1150460, “Synthesis and 5-HT3 receptor antagonist potency of novel (endo) 3,9-diazabicyclo[3.3.1]nonan-7-amino derivatives” (Bioorg Med Chem Lett, 1994)
# Columns and labels:
# [1] = molecular target: T1, Serotonin 3 (5-HT3) receptor (Rattus norvegicus, UniProt P35563+Q9JJ16); test: Displacement of [3H]granisetron from 5-hydroxytryptamine 3 receptor of rat cortex
# T1 sequence (P35563 whole entry): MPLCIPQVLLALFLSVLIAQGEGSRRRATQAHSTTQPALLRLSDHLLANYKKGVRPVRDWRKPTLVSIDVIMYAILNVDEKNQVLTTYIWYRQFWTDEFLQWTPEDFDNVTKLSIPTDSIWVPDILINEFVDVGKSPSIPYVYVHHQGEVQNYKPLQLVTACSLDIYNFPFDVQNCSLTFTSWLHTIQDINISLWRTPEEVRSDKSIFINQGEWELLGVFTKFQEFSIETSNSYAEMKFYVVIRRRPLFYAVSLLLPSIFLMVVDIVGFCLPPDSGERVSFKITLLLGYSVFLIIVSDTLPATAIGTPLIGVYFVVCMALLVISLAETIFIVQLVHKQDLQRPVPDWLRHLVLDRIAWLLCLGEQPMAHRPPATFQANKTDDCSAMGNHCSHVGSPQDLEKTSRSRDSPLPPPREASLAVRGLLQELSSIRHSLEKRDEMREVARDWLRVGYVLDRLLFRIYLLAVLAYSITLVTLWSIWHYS
# T1 sequence (Q9JJ16 whole entry): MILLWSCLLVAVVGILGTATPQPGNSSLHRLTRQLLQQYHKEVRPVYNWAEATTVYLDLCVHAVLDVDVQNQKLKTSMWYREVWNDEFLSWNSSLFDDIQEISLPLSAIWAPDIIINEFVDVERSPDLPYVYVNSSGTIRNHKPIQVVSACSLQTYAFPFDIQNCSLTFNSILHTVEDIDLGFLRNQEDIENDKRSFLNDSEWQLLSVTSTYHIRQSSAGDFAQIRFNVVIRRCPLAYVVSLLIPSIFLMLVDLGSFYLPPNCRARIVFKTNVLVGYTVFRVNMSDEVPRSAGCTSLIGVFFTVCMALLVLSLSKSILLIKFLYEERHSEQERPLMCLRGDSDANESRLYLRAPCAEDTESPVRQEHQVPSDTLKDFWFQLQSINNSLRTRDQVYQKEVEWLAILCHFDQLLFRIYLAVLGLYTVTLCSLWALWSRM
# [2] = molecular target: Serotonin 3 (5-HT3) receptor (Rattus norvegicus) (UniProt P35563+Q9JJ16); test: Inhibition of the von Bezold-Jarisch reflex bradycardia induced by an iv bolus injection of 5-HT; format: functional, organism-based
Inhibitory dose [2] [µg/kg],Compound,Ki [1] [nM],Inhibition [2] [µg/kg]
–,CN1C2CNCC1CC(NC(=O)N1CC(C)(C)c3ccccc31)C2 (stereo not drawn),1,–
0.7,CN1C2CCCC1CC(NC(=O)c1nn(C)c3ccccc13)C2 (stereo not drawn),–,–
–,CCCCN1CC2CC(NC(=O)N3CC(C)(C)c4ccccc43)CC(C1)N2C (stereo not drawn),20,–
–,CC(=O)N1CC2CC(NC(=O)N3CC(C)(C)c4ccccc43)CC(C1)N2C (stereo not drawn),3.98,–
1.8,CN1C2CC(NC(=O)N3CC(C)(C)c4ccccc43)CC1CN(Cc1ccccc1)C2 (stereo not drawn),–,–
–,CCCCN1CC2CC(NC(=O)c3nn(C)c4ccccc34)CC(C1)N2C (stereo not drawn),2.51,–
–,CN1CC2CC(NC(=O)N3CC(C)(C)c4ccccc43)CC(C1)N2C (stereo not drawn),1,–
2.5,COc1cc(N)c(Cl)cc1C(=O)NC1CC2CN(C)CC(C1)N2C (stereo not drawn),–,–
–,CN1C2CC(NC(=O)N3CC(C)(C)c4ccccc43)CC1CN(C(=O)c1ccccc1)C2 (stereo not drawn),10,–
0.5,COc1cc(N)c(Cl)cc1C(=O)NC1CC2CN(Cc3ccccc3)CC(C1)N2C (stereo not drawn),–,–
–,CC(C)N1CC2CC(NC(=O)c3nn(C)c4ccccc34)CC(C1)N2C (stereo not drawn),0.794,0.65
3,CN1C2CC(NC(=O)c3nn(C)c4ccccc34)CC1CN(c1ccccc1)C2 (stereo not drawn),–,–
–,CC(C)CN1CC2CC(NC(=O)c3nn(C)c4ccccc34)CC(C1)N2C (stereo not drawn),3.16,–
–,CCCN1CC2CC(NC(=O)c3nn(C)c4ccccc34)CC(C1)N2C (stereo not drawn),3.16,–

Compound,Inhibitory dose [2] [µg/kg],Ki [1] [nM],Inhibition [2] [µg/kg]
CCN1CC2CC(NC(=O)N3CC(C)(C)c4ccccc43)CC(C1)N2C (stereo not drawn),0.6,2.51,–
CN1C2CC(NC(=O)c3nn(C)c4ccccc34)CC1CN(Cc1ccccc1)C2 (stereo not drawn),0.16,0.501,–
CC(C)N1CC2CC(NC(=O)N3CC(C)(C)c4ccccc43)CC(C1)N2C (stereo not drawn),0.43,1.26,–
CCN1CC2CC(NC(=O)c3nn(C)c4ccccc34)CC(C1)N2C (stereo not drawn),0.8,1.58,–
